According to ChEMBL document CHEMBL1201862, “PubChem BioAssay data set” (2004):
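Following 48 hours of exposure in 96-well plates, responses at five concentrations were used to interpolate endpoints linearly. GI50 = concentration required for 50% inhibition of growth.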 Calls of active or inactive are those of the source. Cut-off read from the data, not from the text of the source: active = GI50 up to about 1.1 µM and inactive = higher.

Key:
Test in all cases: inhibition of tumour cell growth, NCI panel, 48 h
[1] = tested on: SN12C
[2] = tested on: T47D
[3] = tested on: NCI-H522
[4] = tested on: Hs-578T
[5] = tested on: A498
[6] = tested on: DU-145
[7] = tested on: RXF 393
[8] = tested on: KM12
[9] = tested on: U-251
[10] = tested on: SK-MEL-5
[11] = tested on: SF-539
[12] = tested on: SF-268
[13] = tested on: OVCAR-5
[14] = tested on: RPMI-8226
[15] = tested on: OVCAR-4
[16] = tested on: HOP-92
[17] = tested on: TK-10
[18] = tested on: HOP-62
[19] = tested on: HCT-116
[20] = tested on: MDA-N

Measured: GI50

CC[N+](C)(CC)CCN1C(=O)c2ccccc2S1(=O)=O
inactive: [1] > 100 µM | [2] > 100 µM | [3] > 100 µM | [4] > 100 µM | [5] > 100 µM | [6] > 100 µM | [7] > 100 µM | [8] > 100 µM | [9] > 100 µM | [10] > 100 µM | [11] > 100 µM | [12] > 100 µM | [13] > 100 µM | [14] > 100 µM | [15] > 100 µM | [16] > 100 µM | [17] > 100 µM | [18] > 100 µM | [19] > 100 µM

CCc1n[nH]c(=O)n1N1C(=O)CCC1=O
inactive: [1] > 100 µM | [2] > 100 µM | [3] > 100 µM | [4] > 100 µM | [5] > 100 µM | [6] > 100 µM | [7] > 100 µM | [8] > 100 µM | [9] > 100 µM | [20] > 100 µM | [10] > 100 µM | [12] > 100 µM | [13] > 100 µM | [14] > 100 µM | [15] > 100 µM | [17] > 100 µM | [18] > 100 µM | [19] > 100 µM

Cc1ccc2c(=O)c(-c3nnc(NC4CCCCC4)s3)c[nH]c2n1
inactive: [1] > 100 µM | [2] 50 µM | [3] > 100 µM | [4] > 100 µM | [5] > 100 µM | [6] > 100 µM | [7] > 100 µM | [8] > 100 µM | [9] > 100 µM | [20] 81.7 µM | [10] 40.9 µM | [12] > 100 µM | [13] > 100 µM | [14] > 100 µM | [15] > 100 µM | [17] > 100 µM | [18] > 100 µM | [19] > 100 µM

Cc1cccc(/N=C/C=C(\Cl)c2ccc3ccccc3c2)c1
inactive: [1] 16.6 µM | [2] 4.88 µM | [3] 32.6 µM | [4] 26.6 µM | [5] > 100 µM | [6] 17.7 µM | [7] 15.6 µM | [8] 17.7 µM | [9] 14.8 µM | [10] 17.7 µM | [11] 17.8 µM | [12] 22.9 µM | [13] 27.8 µM | [14] 7.91 µM | [15] 11.2 µM | [16] 24.1 µM | [17] 19.8 µM | [18] 17 µM | [19] 2.98 µM

O=C(Nc1ccc(Cl)cc1)c1cc2c(cc1Cl)Sc1nccn1S2(=O)=O
inactive: [1] 49.7 µM | [2] > 100 µM | [3] 57.1 µM | [4] 33.8 µM | [5] 29.6 µM | [6] > 100 µM | [7] 27.5 µM | [8] > 100 µM | [9] 10.7 µM | [20] 28.8 µM | [10] 44.7 µM | [11] 50.2 µM | [12] 27.5 µM | [13] > 100 µM | [15] 37.3 µM | [18] 33.7 µM | [19] 34.6 µM

O=C1CCC2(CCO1)OCCO2
inactive: [1] > 100 µM | [2] > 100 µM | [3] > 100 µM | [4] > 100 µM | [6] > 100 µM | [7] > 100 µM | [8] > 100 µM | [9] > 100 µM | [20] > 100 µM | [10] > 100 µM | [11] > 100 µM | [12] > 100 µM | [13] > 100 µM | [15] > 100 µM | [17] > 100 µM | [18] > 100 µM | [19] > 100 µM

COc1cc(C2C(Cl)C(=O)N2c2ccc(Br)cc2)cc(I)c1O (stereo not given)
inactive: [1] 68.5 µM | [2] 23.8 µM | [3] 18.7 µM | [4] 59.6 µM | [5] > 100 µM | [6] > 100 µM | [8] 37.3 µM | [9] > 100 µM | [20] 36.6 µM | [10] 43.2 µM | [11] > 100 µM | [12] 89.1 µM | [13] 87.7 µM | [14] 33.1 µM | [15] 70.5 µM | [17] 90.8 µM | [18] 37.4 µM | [19] 40.3 µM

N#C/C(C(=S)Nc1ccccc1)=C(/N)N1CCCC1
inactive: [1] > 100 µM | [3] > 100 µM | [4] > 100 µM | [5] > 100 µM | [6] > 100 µM | [7] > 100 µM | [8] > 100 µM | [9] > 100 µM | [20] > 100 µM | [10] > 100 µM | [11] > 100 µM | [12] > 100 µM | [13] > 100 µM | [14] > 100 µM | [15] > 100 µM | [16] 62.5 µM | [17] > 100 µM | [18] > 100 µM | [19] > 100 µM
